In one experiment the target is HLA-A*3002 (Homo sapiens, UniProt P04439, D101N/D140H/D185E/E176R/F33S/G80R/H175R/K168Q/Q94H/R138E/R41S/V100E). As to the kind of experiment: biochemical. In kind it is binding.
For another experiment, the target named is HLA-A*2902 (Homo sapiens, UniProt P04439, A270S/D101N/D185E/E176V/E277Q/E87Q/F33T/G231S/H175R/I121M/I218V/I322F/K168Q/L300P/L318F/M331R/P208A/P217A/Q86L/T323A/T345S/V100A/V358M). As to the kind of experiment: MHC molecular binding / Capture assay, IC50: A*2902.
Another experiment addresses HLA-A*2301 (Homo sapiens, UniProt P04439, D101N/D140Y/D185E/E176V/E190D/F33S/G103R/G107R/H175R/I119L/I121M/I306V/K168Q/K335N/L105A/L300P/N151K/N90K/P307H/Q86E/Q94H/R106L/R138H/R89G/T104I/T345S/V100E/W191G/Y123F). Put plainly: biochemical. In kind it is binding.
The next experiment deals with HLA-A*2402 (Homo sapiens, UniProt P04439, D101N/D140Y/D185E/E176V/E190D/F33S/G103R/G107R/I119L/I121M/I306V/K335N/L105A/L180Q/L300P/N151K/N90K/Q86E/Q94H/R106L/R138H/R89G/T104I/T345S/V100E/W191G/Y123F). As to the kind of experiment: MHC molecular binding / Capture assay, IC50: A*2402.
The target of the next experiment is HLA-B*4501 (Homo sapiens, UniProt P01889, A329T/A65T/A93T/A95T/C349S/D138N/D201E/D98Y/E176V/E187L/E204Q/E69K/H137Y/K202T/L119W/N87E/Q56L/Q94N/R155S/R180D/S121R/S35A/S48T/V127L/V306I/V36M/W191S/Y140L/Y33H/Y91S). Put plainly: biochemical. In kind it is binding.
For a further experiment, the target named is HLA-B*4001 (Homo sapiens, UniProt P01889, A65T/A93T/A95T/D138N/D98Y/E176V/E69K/N87E/Q56L/Q94N/R180L/S121R/S35A/S48T/T167S/V36M/W171L/Y33H/Y91S). Put plainly: biochemical. In kind it is binding. The note with it: B*4001.
Where [1] appears, read: read-out: A*2301 binding affinity (IC50).
Where [2] appears, read: read-out: A*2402 binding affinity (IC50).
Setting [3] is: Binding affinity to A*3002 (expressed as an IC50).
Setting [4] is: Binding affinity to A*2902 (expressed as an IC50).
The mark [5] stands for this setting: read-out: A*2902 binding affinity (IC50).

Read-outs that look alike come from different tables or passages of the source. No end group written: not given here. Some results are limits rather than exact numbers.

Take AYRDLCIVY: the IC50 on HLA-A*3002 came out at 66 nM; on HLA-A*2902, 7120 nM; on HLA-A*2301, 1480 nM; on HLA-A*2402, 2090 nM.
The matching figures for VFADLRIVF: 24100 nM, 87 nM, 2.5 nM and 23 nM.
The matching figures for RYHSIAGQY: 1.4 nM, 544 nM, 1900 nM and 3170 nM.
The matching figures for NYSVYGNTF: 2560 nM, 9120 nM, 29 nM and 28 nM.
Turning to LYGDTLEQTF, the IC50 against HLA-A*3002 was 42000 nM; on HLA-A*2902, 40900 nM; on HLA-A*2301, 24 nM; at HLA-A*2402, 91 nM.
In the case of IYGPGPGLIIF, the IC50 at HLA-A*2301 (setting [1]) was determined as 8 nM; on HLA-A*2402 (setting [2]), 7.4 nM.
For the molecule VYRHCEYIL, the IC50 on HLA-A*3002 (A*3002 binding affinity (IC50)) was found to be 3330 nM; at HLA-A*2902 (A*2902 binding affinity (IC50)), 118000 nM; against HLA-A*2301 it was 64 nM; at HLA-A*2402, 2200 nM.
As to `CC(C)C[C@H](NC(=O)[C@H](Cc1c[nH]c2ccccc12)NC(=O)[C@@H]1CCCN1C(=O)[C@H](Cc1ccccc1)NC(=O)[C@H](CO)NC(=O)[C@@H](NC(=O)[C@H](Cc1ccc(O)cc1)NC(=O)[C@@H](N)CCCCN)[C@@H](C)O)C(=O)O`, the IC50 at HLA-A*3002 (setting [3]) was 346 nM; at HLA-A*2902, greater than 172000 nM; at HLA-A*2902 (setting [4]) it was greater than 172000 nM; against HLA-A*2301, 177 nM; on HLA-A*2402, 208 nM.
As to NYSLYGDTF, the IC50 on HLA-A*3002 amounted to 64 nM; at HLA-A*2902, 20900 nM; on HLA-A*2402, 6.4 nM.
As to LYPEPTDLF, the IC50 at HLA-A*3002 came to 30700 nM; at HLA-A*2902, 1150 nM; at HLA-A*2301 it was 17 nM; on HLA-A*2402 it was 38 nM.
The matching figures for KFLFTDLRF: 152 nM, 44 nM, 0.74 nM and 12 nM.
For VYEFAFKDLF, the IC50 amounted to 2040 nM on HLA-A*3002, 1970 nM at HLA-A*2902, 1.7 nM against HLA-A*2301 and 15 nM at HLA-A*2402.
The matching figures for KYSKSSIVGW: greater than 34500 nM, greater than 69400 nM, 491 nM and 4060 nM.
The matching figures for LYVYHTQGYF: 1220 nM, 1700 nM, 23 nM and 38 nM.
As to MFVPKYFEL, the IC50 stood at 8560 nM at HLA-A*3002 (A*3002 binding affinity (IC50)), 2560 nM on HLA-A*2902 (A*2902 binding affinity (IC50)), 11 nM against HLA-A*2301 and 266 nM at HLA-A*2402.
On to IIFHFFLFLL, for which the results for the IC50 on HLA-A*2301 (setting [1]) and on HLA-A*2402 (setting [2]) were 80 nM and 208 nM, respectively.
With CEKCSKPCARV, on HLA-B*4501 (read-out: B*4501), the IC50 worked out at 1560 nM.
Take KIFIKSLFHI: the IC50 at HLA-A*2902 (setting [5]) is greater than 50000 nM; on HLA-A*2301 (setting [1]), 2 nM; at HLA-A*2402 (setting [2]), 4.1 nM.
Take FYSRIRELRF: the IC50 came to 12600 nM on HLA-A*3002, 83 nM at HLA-A*2902, 1.6 nM against HLA-A*2301 and 11 nM at HLA-A*2402.
The matching figures for VYDFVFADF: 3960 nM, 1230 nM, 2.2 nM and 9.9 nM.
Regarding KYYSKISEY, the IC50 on HLA-A*3002 came out at 1.3 nM; on HLA-A*2902, 702 nM; at HLA-A*2402, 11000 nM.
In the case of YYNKSTEKL, the IC50 at HLA-A*3002 (A*3002 binding affinity (IC50)) stood at 21800 nM; on HLA-A*2902 (A*2902 binding affinity (IC50)), 55600 nM; at HLA-A*2402, 109 nM.
Regarding LFYSKVRKF, the IC50 at HLA-A*3002 came out at 632 nM; on HLA-A*2902 it was 11200 nM; on HLA-A*2301, 277 nM; on HLA-A*2402 it was 2010 nM.
The matching figures for TFGWCFKF: greater than 10100 nM, 4450 nM, 462 nM and 3420 nM.
Turning to RYHNISGRW, the IC50 came out at 13 nM at HLA-A*3002, 105000 nM at HLA-A*2902 and 47 nM at HLA-A*2402.
Turning to KYLFTDLRI, the IC50 on HLA-A*3002 was found to be 339 nM; on HLA-A*2902, 78600 nM; at HLA-A*2301, 1.9 nM; at HLA-A*2402 it was 108 nM.
Regarding AYKDLFVVY, the IC50 at HLA-A*3002 came out at 1.3 nM; on HLA-A*2902, 639 nM; on HLA-A*2301, 905 nM; at HLA-A*2402 it was 1550 nM.
In the case of KLFFDKDKEL, the figures for the IC50 on HLA-A*2902 (setting [5]) and on HLA-A*2402 (setting [2]) were greater than 50000 nM and 269 nM, respectively.
Regarding RFPLTFGF, the IC50 against HLA-A*3002 is 13500 nM; at HLA-A*2902, 12800 nM; at HLA-A*2301, 124 nM; on HLA-A*2402, 178 nM.
The matching figures for AFADLTVVF: 137 nM, 779 nM, 30 nM and 203 nM.
The matching figures for AFKDLFVVF: 829 nM, 3050 nM, 6.8 nM and 294 nM.
Turning to LYYLFNQHI, the IC50 turned out to be 11000 nM at HLA-A*3002 (A*3002 binding affinity (IC50)), 20100 nM at HLA-A*2902 (A*2902 binding affinity (IC50)), 1.4 nM against HLA-A*2301 and 33 nM at HLA-A*2402.
As to RYPLTFGW, the IC50 on HLA-A*2902 (A*2902 binding affinity (IC50)) came to 13900 nM; against HLA-A*2301, 3840 nM; at HLA-A*2402, 127 nM.
In the case of RFLSKISEF, the IC50 against HLA-A*3002 was determined as 201 nM; at HLA-A*2902, 40100 nM; against HLA-A*2301, 2.5 nM; at HLA-A*2402, 58 nM.
The matching figures for NYACTELKL: 49100 nM, 77800 nM, 131 nM and 1740 nM.
The matching figures for VYREGNPFGF: 21900 nM, 11100 nM, 91 nM and 197 nM.
Regarding PYAVCDKCLKF, the IC50 is greater than 60000 nM at HLA-A*3002 (read-out: A*3002 binding affinity (IC50)) and 99 nM at HLA-A*2402 (setting [2]).
On to LYVVYRDSI, for which the IC50 at HLA-A*3002 is 3480 nM; at HLA-A*2902 it was 148000 nM; on HLA-A*2402, 982 nM.
With LYYSKVRKY, the IC50 against HLA-A*3002 was 28 nM; at HLA-A*2902, 1450 nM; against HLA-A*2301, 2740 nM; at HLA-A*2402, 21900 nM.
The matching figures for RYPLTFGF: 6330 nM, 9700 nM, 6.4 nM and 3.3 nM.
Take AENNWVTVY: the IC50 against HLA-B*4501 was 99 nM.
Regarding SYKSSKRDKF, the IC50 on HLA-A*3002 (setting [3]) came out at 88 nM; on HLA-A*2902 (setting [4]), 12600 nM; against HLA-A*2301, 797 nM; on HLA-A*2402 it was 256 nM.
On to LYVYHTQGY, for which the IC50 against HLA-A*3002 came to 258 nM; on HLA-A*2902, 216 nM; at HLA-A*2301, 6090 nM; on HLA-A*2402, 7140 nM.
Turning to TENLWVTVY, the figures for the IC50 on HLA-B*4501 (B*4501) and against HLA-B*4001 were 5300 nM and 14000 nM, respectively.
Turning to KYGSLQYLAL [KYGSLQYLAL], the IC50 against HLA-A*3002 was 6960 nM; on HLA-A*2902, greater than 69400 nM; on HLA-A*2402, 2800 nM.
Turning to RFHSIAGQF, the IC50 worked out at 1.2 nM against HLA-A*3002, 481 nM at HLA-A*2902, 2.9 nM against HLA-A*2301 and 28 nM on HLA-A*2402.
AFKDLCIVF: the IC50 turned out to be 5850 nM at HLA-A*2902, 16 nM at HLA-A*2301 and 284 nM at HLA-A*2402.
Take VYYNILIVL: the results for the IC50 at HLA-A*2902 (A*2902 binding affinity (IC50)), against HLA-A*2301 and on HLA-A*2402 were greater than 192000 nM, 52 nM and 265 nM, respectively.
Turning to VYCKTVLEF, the IC50 is 1140 nM on HLA-A*3002, 610 nM on HLA-A*2902, 4.7 nM at HLA-A*2301 and 50 nM at HLA-A*2402.
Take AFRDLCIVF: the IC50 is 3300 nM against HLA-A*3002, 6720 nM on HLA-A*2902, 369 nM on HLA-A*2301 and 1010 nM on HLA-A*2402.
Consider FYSKVRKYRF, for which the results for the IC50 against HLA-A*3002, against HLA-A*2301 and at HLA-A*2402 were 1230 nM, 13 nM and 18 nM, respectively.
Regarding VYNFACTEF, the IC50 against HLA-A*3002 turned out to be 784 nM; at HLA-A*2902, 774 nM; against HLA-A*2301, 2.1 nM; at HLA-A*2402, 14 nM.
Consider EYRHYQYSF, for which the IC50 stood at 430 nM against HLA-A*3002, 13700 nM on HLA-A*2902, 2.3 nM against HLA-A*2301 and 21 nM at HLA-A*2402.
For the molecule PYGVCLMCLRF, the figures for the IC50 at HLA-A*2301 (setting [1]) and at HLA-A*2402 (setting [2]) were 100 nM and 380 nM, respectively.
As to AYAACHKCIDF, on HLA-A*2402 (setting [2]), the IC50 amounted to 91 nM.
On the same count and under the same terms, next, LSKISEYRHY: greater than 93000 nM.

The values above are taken from US20060079453A1, “Hla binding peptides and their uses” (priority 2002, published 2006).
